Laboratory results: patent EP0606463B1, “NEUROMEDIN B RECEPTOR ANTAGONISTS” (The Administrators of The Tulane Educational Fund, priority 1992, dated 1994)
Like-named read-outs stand apart in the source and are kept apart here. Where a SMILES comes first, the peptide text is derived from it. Bridges are numbered along the chain shown (N, C = ends). [ ]: non-standard residue; d: D form. 2Nal = N[C@@H](Cc1ccc2ccccc2c1)C(=O)O; d2Nal = N[C@H](Cc1ccc2ccccc2c1)C(=O)O

What was measured:
GRP Receptor = target: T1, GRP Receptor (Rattus norvegicus, UniProt P52500); test: Amylase release from rat pancreatic acini; format: cell-based; conditions: for Rat Pancreatic Acini Amylase Release Alone (10µM): analog 10 µM alone, no-additive control 4 ± 1; for Rat Pancreatic Acini Amylase Release Plus Bn(0.3 nM): analog 10 µM plus Bn 0.3 nM, Bn without analog 15 ± 1
T1 construct: from tissue; host or cells: dispersed pancreatic acini

NMB Receptor = target: T2, NMB Receptor (Rattus norvegicus, UniProt P24053); test: [3H]inositol phosphates (IP) in NMB-R transfected cells; format: cell-based; conditions: for NMB-R Transfected Cells [^3H]IP Alone (10 µ M): analog 10 µM alone, no-additive control 13 ± 3; for NMB-R Transfected Cells [^3H]IP Plus NMB (3 nM): analog 10 µM plus NMB 3 nM, NMB without analog 186 ± 58
T2 construct: a full length NMB-preferring bombesin receptor clone generated from rat esophagus; expressed in transfected cells; host or cells: BALB 3T3 cells
T2 sequence (P24053 1-390): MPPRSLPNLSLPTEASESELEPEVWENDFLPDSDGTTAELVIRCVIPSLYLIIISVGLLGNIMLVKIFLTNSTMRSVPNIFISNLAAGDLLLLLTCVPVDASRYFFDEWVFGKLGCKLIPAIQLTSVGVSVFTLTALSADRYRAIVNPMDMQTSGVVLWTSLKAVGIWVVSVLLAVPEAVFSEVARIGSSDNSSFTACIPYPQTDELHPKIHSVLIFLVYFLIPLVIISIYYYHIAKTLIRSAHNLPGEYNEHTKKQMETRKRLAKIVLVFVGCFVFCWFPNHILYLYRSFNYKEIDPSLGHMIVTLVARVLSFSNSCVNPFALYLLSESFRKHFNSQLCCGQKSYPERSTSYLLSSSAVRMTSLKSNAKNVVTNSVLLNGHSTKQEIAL
Procedure, shortened: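 BALB 3T3 cells stably expressing rat NMB receptor, labelled 48 h with myo-[2-3H]inositol, then 60 min at 37°C in LiCl-containing buffer with agonists, or with 3 nM NMB plus antagonists. Total [3H]IP isolated by anion-exchange chromatography.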

[1] = target: T3, GRP receptors on rat pancreatic acini (Rattus norvegicus, UniProt P52500); test: Binding of 125I-[Tyr4]bombesin to pancreatic acini; conditions: read-out: Ki (nM) ^123I[Tyr^4]BnBinding
T3 construct: from tissue; host or cells: dispersed pancreatic acini
From the text: Nonsaturable binding was < 10% of total binding in all experiments.

rat NMB receptor = target: T4, rat NMB receptor (Rattus norvegicus, UniProt P24053); test: Binding of 125I-[D-Tyr0]NMB to NMB-R transfected BALB 3T3 cells; conditions: for fold by which cyclo SS-octa was more potent than the analog: inhibition of ^125I-[Tyr^0]NMB binding to NMB-R transfected cells
T4 construct: a full length NMB-preferring bombesin receptor clone generated from rat esophagus; expressed in transfected cells; host or cells: BALB 3T3 cells
T4 sequence (P24053 1-390): T2 sequence (P24053 1-390)

[2] = target: T5, NMB receptors on C-6 cells (Rattus norvegicus, UniProt P24053); test: Binding of 125I-[D-Tyr0]NMB to C-6 glioblastoma cells; conditions: NMB Receptor, Ki by method of Cheng, read-out: Ki(nM) ^123I-NMB Binding
T5 construct: endogenous in cells; host or cells: rat glioblastoma C-6 cells
Procedure: Binding studies using rat glioblastoma C-6 or NMB-R transfected cells were performed as described previously [Benya, R. V. et al. Mol. Pharmacol. 42:1058 (1992); and Wang, L-H. et al. Biochem. J. 286:641 (1992)] by suspending disaggregated cells in binding buffer, which was composed of standing buffer ([…], 7.7 mM KCl, 1.0 mM EGTA, 0.02% soybean trypsin inhibitor) additionally containing 50 mM HEPES, 1 mM MgCl2, 1.5 mM CaCl2, 2.2 mM KH2PO4, 0.015% glutamine, and 0.2% BSA (w\v) (pH 7.4). Incubations contained 75 pM ^125I-[D-Tyr^0]NMB and 15 x 10^6 C-6 cells/ml or 2 x 10^6 NMB-R transfected cells/ml, for 60 min at 22°C. Nonsaturable binding of ^125I-[D-Tyr^0]NMB was te amount of radioactivity associated with C-6 cells or NMB-R transfected cells when the incubation mixture contained […]. Nonsaturable binding was < 15% of total binding in all experiments; all values are reported herein as saturable binding (i.e., total minus nonsaturable binding).

[3] = target: T6, GRP receptors on AR 42J cell membranes (Rattus norvegicus, UniProt P52500); test: GRP membrane receptor assay (AR 42J cell membranes); format: binding; conditions: method of Cheng, unit inferred, read-out: affinity, ^125I-[Tyr^4]Bn
T6 construct: endogenous in cells; host or cells: rat AR 42J pancreatic acinar cells (membranes)

[4] = target: T7, somatostatin receptors on AR 42J cells (Rattus norvegicus, UniProt P30680); test: Somatostatin membrane receptor assay (AR 42J cell membranes); format: binding; conditions: for inhibition of binding of ^125I-[Tyr^11]SS-14 to somatostatin receptors: AR 42J cells, concentrations up to 10 µM
T7 construct: endogenous in cells; host or cells: rat AR 42J pancreatic acinar cells (membranes)

mu opioid receptors = target: T8, mu opioid receptors (Rattus norvegicus, UniProt P33535); test: mu opioid membrane assay ([3H]DAGO, rat forebrain membranes); format: binding; conditions: for inhibition of binding to mu opioid receptors: rat forebrain membranes, concentrations up to 10 µM
T8 construct: rat forebrain (TRH, mu and delta opioid membrane assays); from tissue; host or cells: rat forebrain membranes

[5] = target: T9, NMB receptors on rat olfactory bulb membranes (Rattus norvegicus, UniProt P24053); test: NMB membrane receptor assay (rat olfactory bulb membranes); format: binding
T9 construct: Membranes were prepared from rat olfactory bulb (NMB membrane receptor assay); from tissue; host or cells: rat olfactory bulb membranes
T9 sequence (P24053 1-390): T2 sequence (P24053 1-390)

[6] = target: T10, NMB receptors on C-6 glioblastoma cells (Rattus norvegicus, UniProt P24053); test: NMB-stimulated [3H]IP in C-6 glioblastoma cells; format: cell-based; conditions: C-6 glioblastoma cells; agonist without analog; basal 7.2±1.0
T10 construct: endogenous in cells; host or cells: rat glioblastoma C-6 cells
T10 sequence (P24053 1-390): T2 sequence (P24053 1-390)
Procedure: Total phosphoinositides in C-6 cells and in NMB-R transfected cells were determined as described previously, with minor modifications [Benya, R. V. et al. Mol. Pharmacol. 42:1058 (1992); and Wang, L-H. et al. Biochem. J. 286:641 (1992)]. Cells were grown to confluence in 24-well plates and then loaded with 100 µCi/ml myo-[2-^3H]inositol in Dulbecco's modified essential medium with 2% fetal bovine serum at 37°C for 48 hrs. Cells were washed and incubated in phosphoinositide buffer (standard buffer additionally containing 10 mM LiCl, 20 mM HEPES, 2 mM CaCl2, 2% BSA, and 1.2 mM MgSO4) for 15 min and then […] Reactions were halted using ice-cold 1% HCl in methanol, and the inositol phosphates (IP) were isolated as described previously [Bologna, M. et al. Cancer 63:1714 (1989); and Endo, T. et al. J. Endocrinol. 131:313 (1991)]. Briefly, after loading of the anion exchange column, free [^3H]glycerophosphorylinositol was removed by washing with 5 mM disodium tetraborate in 60 mM sodium formate. Total [^3H]inositol phosphates were then eluted using 100 mM formic acid in 1.0 M ammonium formate as described previously [Benya, R. V. et al. Mol. Pharmacol. 42:1058 (1992); and Wang, L-H. et al. Biochem. J. 286:641 (1992)].

[7] = NMB Receptor, Transfected Cells, read-out: IC50 (nM) NMB-stimulated [^3H]IP
[8] = NMB Receptor, Transfected Cells, Ki by method of Cheng, read-out: Ki (nM) ^123I-NMB Binding

T8 sequence (P33535 whole entry): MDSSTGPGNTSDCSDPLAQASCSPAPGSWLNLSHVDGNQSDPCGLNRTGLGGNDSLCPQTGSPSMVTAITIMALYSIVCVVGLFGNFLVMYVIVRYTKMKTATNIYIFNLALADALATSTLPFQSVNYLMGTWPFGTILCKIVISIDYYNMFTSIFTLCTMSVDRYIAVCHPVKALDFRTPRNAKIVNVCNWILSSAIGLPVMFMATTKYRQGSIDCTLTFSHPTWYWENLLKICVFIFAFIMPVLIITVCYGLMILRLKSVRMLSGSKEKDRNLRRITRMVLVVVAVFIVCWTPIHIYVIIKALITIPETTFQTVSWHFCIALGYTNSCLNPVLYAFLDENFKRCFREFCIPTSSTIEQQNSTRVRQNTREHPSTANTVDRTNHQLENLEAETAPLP
T1 sequence (P52500 whole entry): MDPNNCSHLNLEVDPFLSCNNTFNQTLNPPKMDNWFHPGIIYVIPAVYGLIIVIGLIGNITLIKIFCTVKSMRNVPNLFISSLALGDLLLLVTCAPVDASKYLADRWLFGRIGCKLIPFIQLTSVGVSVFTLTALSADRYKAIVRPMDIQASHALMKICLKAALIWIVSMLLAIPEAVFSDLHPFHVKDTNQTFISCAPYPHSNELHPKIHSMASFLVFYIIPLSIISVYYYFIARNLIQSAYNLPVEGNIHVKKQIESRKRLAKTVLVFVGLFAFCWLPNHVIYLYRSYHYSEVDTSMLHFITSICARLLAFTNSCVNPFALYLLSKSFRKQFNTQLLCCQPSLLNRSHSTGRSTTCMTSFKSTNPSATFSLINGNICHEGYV
T7 sequence (P30680 whole entry): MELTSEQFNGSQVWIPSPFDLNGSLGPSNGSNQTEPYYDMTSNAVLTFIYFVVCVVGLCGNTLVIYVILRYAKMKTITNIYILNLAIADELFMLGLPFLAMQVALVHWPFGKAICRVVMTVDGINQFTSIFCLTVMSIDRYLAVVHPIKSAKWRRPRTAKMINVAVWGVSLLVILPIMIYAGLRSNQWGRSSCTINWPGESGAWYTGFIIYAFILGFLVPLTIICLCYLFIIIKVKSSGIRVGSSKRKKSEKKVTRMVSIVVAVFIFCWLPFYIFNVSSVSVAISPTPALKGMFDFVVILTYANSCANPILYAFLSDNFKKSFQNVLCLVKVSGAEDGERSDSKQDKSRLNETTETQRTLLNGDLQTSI
T3 sequence (P52500 whole entry): as the sequence (P52500 whole entry) above
T6 sequence (P52500 whole entry): as above

SMILES: NCCCC[C@@H]1NC(=O)[C@@H](Cc2c[nH]c3ccccc23)NC(=O)[C@H](Cc2ccc(O)cc2)NC(=O)[C@@H](NC(=O)[C@H](N)Cc2ccc3ccccc3c2)CSSC[C@@H](C(=O)N[C@@H](Cc2ccc3ccccc3c2)C(N)=O)NC(=O)[C@H](Cc2ccc3ccccc3c2)NC1=O [Analog #3, [Nal^6]-cyclo SS-octa] (H-[d2Nal]CY[dW]K[2Nal]C[2Nal]-NH2; disulfide 2-7)
- IC50 (GRP Receptor): > 10000 nM
- Rat Pancreatic Acini Amylase Release Alone (10µM) (GRP Receptor): 3 ± 1 % total
- Rat Pancreatic Acini Amylase Release Plus Bn(0.3 nM) (GRP Receptor): 15 ± 1 % total
- IC50 (NMB Receptor; [7]): 2880 ± 188 nM
- IC50 (NMB Receptor; NMB-R transfected cells, summary of Table 1, read-out: IC50 of NMB-stimulated increases in [^3H]IP): 3000 to 6600 nM
- NMB-R Transfected Cells [^3H]IP Alone (10 µ M) (NMB Receptor): 11 ± 1 dpm x 10^3
- NMB-R Transfected Cells [^3H]IP Plus NMB (3 nM) (NMB Receptor): 65 ± 15 dpm x 10^3
- Ki [1]: > 10000 nM
- Ki (rat NMB receptor; [8]): 697 ± 64 nM
- Ki (rat NMB receptor; NMB-R transfected cells, summary of Table 1, read-out: K1): 700 to 800 nM
- fold by which cyclo SS-octa was more potent than the analog (rat NMB receptor): 4 fold
- Ki [2]: 997 ± 76 nM

SMILES: CC(C)[C@@H]1NC(=O)[C@H](CCCCN)NC(=O)[C@@H](Cc2c[nH]c3ccccc23)NC(=O)[C@H](Cc2ccc(O)cc2)NC(=O)[C@@H](NC(=O)[C@H](N)Cc2ccc3ccccc3c2)CSSC[C@@H](C(=O)N[C@H](C(N)=O)[C@@H](C)O)NC1=O [Analog #5, [Thr^8]-cyclo-SS-octa]
- IC50 (GRP Receptor): > 10000 nM
- Ki [3]: 3.9 ± 1.2 µM
- Ki ([4]; AR 42J Cell Membranes, method of Cheng, unit inferred, read-out: affinity, ^125I-[Tyr^11]SS-14): 0.29 ± 0.03 nM
- IC50 (NMB Receptor; [7]): > 10000 nM
- effect on NMB-stimulated increase in [^3H]IP (NMB Receptor; NMB-R transfected cells, 3 nM NMB, peptide 10 µM): no activity
- Ki [1]: > 10000 nM
- Ki (rat NMB receptor; K1, NMB-R transfected cells, summary of Table 1): 14000 to 19000 nM
- Ki (rat NMB receptor; [8]): 14800 ± 2650 nM
- Ki [2]: 3790 ± 1080 nM
- Ki (mu opioid receptors; Rat Forebrain membranes, method of Cheng, unit inferred, read-out: affinity, [^3H]DAGO): 2 ± 1.4 nM
- Ki ([5]; Rat Olfactory bulb membranes, method of Cheng, unit inferred, read-out: affinity, ^125I-NMB): 800 ± 200 nM

SMILES: CC(C)[C@@H]1NC(=O)[C@H](Cc2c[nH]cn2)NC(=O)[C@@H](Cc2c[nH]c3ccccc23)NC(=O)[C@H](Cc2ccc(O)cc2)NC(=O)[C@@H](NC(=O)[C@H](N)Cc2ccc3ccccc3c2)CSSC[C@@H](C(=O)N[C@@H](Cc2ccc3ccccc3c2)C(N)=O)NC1=O [Analog #14, [His^5]-cyclo SS-octa] (H-[d2Nal]CY[dW]HVC[2Nal]-NH2; disulfide 2-7; N-terminus assumed)
- Rat Pancreatic Acini Amylase Release Alone (10µM) (GRP Receptor): 2 ± 1 % total
- Rat Pancreatic Acini Amylase Release Plus Bn(0.3 nM) (GRP Receptor): 13 ± 1 % total
- NMB-R Transfected Cells [^3H]IP Alone (10 µ M) (NMB Receptor): 8 ± 1 dpm x 10^3
- NMB-R Transfected Cells [^3H]IP Plus NMB (3 nM) (NMB Receptor): 97 ± 7 dpm x 10^3
- fold by which cyclo SS-octa was more potent than the analog (rat NMB receptor): 45 fold
- decrease in NMB receptor affinity compared with #1 (rat NMB receptor; structure-function comparison of Table 1 values): 50 fold
- fold higher affinity for NMB receptors than somatostatin receptors ([5]; rat olfactory bulb versus AR 42J membranes (Table 4)): 3 fold

SMILES: CSCC[C@H](NC(=O)[C@H](CC(C)C)NC(=O)[C@H](Cc1c[nH]cn1)NC(=O)CNC(=O)[C@@H](NC(=O)[C@H](C)NC(=O)[C@H](Cc1c[nH]c2ccccc12)NC(=O)[C@H](Cc1c[nH]cn1)NC(=O)[C@H](CC(N)=O)NC(=O)CNC(=O)[C@H](CCCNC(=N)N)NC(=O)[C@@H]1CCCN1C(=O)[C@H](Cc1ccc(O)cc1)NC(=O)[C@H](CCSC)NC(=O)[C@H](CCCCN)NC(=O)[C@@H](NC(=O)[C@H](CC(C)C)NC(=O)[C@@H](NC(=O)[C@@H](NC(=O)CNC(=O)CNC(=O)CNC(=O)[C@H](C)NC(=O)[C@@H]1CCCN1C(=O)[C@H](CC(C)C)NC(=O)[C@@H]1CCCN1C(=O)[C@@H](N)C(C)C)[C@@H](C)O)C(C)C)[C@@H](C)O)C(C)C)C(N)=O [GRP, gastrin-releasing peptide]
- inhibition of binding of ^125I-[Tyr^11]SS-14 to somatostatin receptors [4]: Neither NMB nor GRP at concentrations up to 10 µ M inhibited binding
- inhibition of binding to mu opioid receptors (mu opioid receptors): Neither NMB nor GRP at concentrations up to 10 µ M inhibited binding

SMILES: CSCC[C@H](NC(=O)[C@H](Cc1ccccc1)NC(=O)[C@H](Cc1c[nH]cn1)NC(=O)CNC(=O)[C@@H](NC(=O)[C@H](C)NC(=O)[C@H](Cc1c[nH]c2ccccc12)NC(=O)[C@H](CC(C)C)NC(=O)[C@H](CC(N)=O)NC(=O)CN)[C@@H](C)O)C(N)=O [NMB, neuromedin B]
- inhibition of binding of ^125I-[Tyr^11]SS-14 to somatostatin receptors [4]: Neither NMB nor GRP at concentrations up to 10 µ M inhibited binding
- increase in [^3H]IP caused by 3 nM NMB (NMB Receptor; NMB-R transfected cells): 14 fold
- inhibition of binding to mu opioid receptors (mu opioid receptors): Neither NMB nor GRP at concentrations up to 10 µ M inhibited binding
- [^3H]IP, NMB (10 nM) Alone [6]: 21.0 ± 1.8 dpm x 10^3
